Measured values taken from publication PMC5701912, “Arylacetamide Deacetylase Is Involved in Vicagrel Bioactivation in Humans” (Frontiers in Pharmacology, 2017).

How the values were obtained:
[1] = parameters: method as in Liu et al., 2017; conditions: healthy subjects; oral 5 mg vicagrel and 75 mg clopidogrel; ref Liu et al., 2017; cited from earlier work
[2] = parameters: method as in Liu et al., 2017; conditions: healthy subjects, oral vicagrel tablets, during the sampling period; ref Liu et al., 2017; cited from earlier work
AADAC [3] = target: T1, AADAC (Homo sapiens, UniProt P22760); assay: Hydrolase activity by recombinant human AADAC
T1 sequence (P22760 1-399): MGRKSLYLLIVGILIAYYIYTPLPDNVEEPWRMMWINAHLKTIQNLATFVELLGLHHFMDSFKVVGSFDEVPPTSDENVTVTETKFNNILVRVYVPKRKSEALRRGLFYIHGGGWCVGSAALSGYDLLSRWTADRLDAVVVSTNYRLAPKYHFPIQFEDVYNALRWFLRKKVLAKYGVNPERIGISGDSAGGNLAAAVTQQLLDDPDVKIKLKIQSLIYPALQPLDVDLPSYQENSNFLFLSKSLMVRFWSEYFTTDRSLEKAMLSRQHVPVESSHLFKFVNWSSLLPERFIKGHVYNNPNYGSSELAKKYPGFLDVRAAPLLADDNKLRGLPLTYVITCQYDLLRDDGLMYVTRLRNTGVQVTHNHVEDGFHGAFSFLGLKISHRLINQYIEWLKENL

[4] = Hydrolase activity (kinetics and marker substrates) in human liver microsomes; format: in vitro ADME
From the text: (§1) (1) v = Vmax × S/(Km + S)

[5] = parameters: method as in Qiu et al., 2013; conditions: rats and beagle dogs, ref Qiu et al., 2013, cited from earlier work
CES2 [6] = target: T2, CES2 (Homo sapiens, UniProt O00748); assay: Hydrolase activity by recombinant human CES2; format: in vitro ADME
T2 construct: purchased Cypex Ltd. (Scotland, United Kingdom)
T2 sequence (O00748 27-559): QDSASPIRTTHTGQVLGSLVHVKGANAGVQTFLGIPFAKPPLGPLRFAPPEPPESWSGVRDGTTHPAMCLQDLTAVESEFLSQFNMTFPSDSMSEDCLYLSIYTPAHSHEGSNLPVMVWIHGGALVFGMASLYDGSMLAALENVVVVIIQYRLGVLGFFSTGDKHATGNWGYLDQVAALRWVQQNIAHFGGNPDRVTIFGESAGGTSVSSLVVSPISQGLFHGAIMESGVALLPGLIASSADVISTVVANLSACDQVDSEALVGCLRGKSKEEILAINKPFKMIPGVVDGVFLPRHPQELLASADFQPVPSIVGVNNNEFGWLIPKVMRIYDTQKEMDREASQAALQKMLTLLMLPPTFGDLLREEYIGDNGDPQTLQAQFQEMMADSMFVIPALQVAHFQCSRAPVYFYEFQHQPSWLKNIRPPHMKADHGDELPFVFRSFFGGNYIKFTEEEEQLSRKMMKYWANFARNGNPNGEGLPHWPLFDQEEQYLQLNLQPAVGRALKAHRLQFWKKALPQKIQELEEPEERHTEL
From the text: as §1

AADAC [7] = assay: Contribution of AADAC to vicagrel hydrolase activity in HIM (RAF method); format: in vitro ADME, human; conditions: phenacetin as probe
From the text: (§2) The RAF method was applied as the ratio of activity values to evaluate the contribution of CES2 and AADAC to vicagrel hydrolysis in HIM. […] The following formulas were used to predict the vicagrel hydrolase activities of CES2 (VCES2, HIM), and AADAC (VAADAC, HIM) in HIM:
(3) VAADAC, HIM = Vrec−AADAC × […], HIM
(§3) V rec-CES2 and V rec-AADAC are the vicagrel hydrolase activities of recombinant CES2 and AADAC, respectively. The following equations were used to calculate the contributions of CES2 and AADAC to vicagrel hydrolase activities in HIM:
(5) AADAC in HIM(%) = (VAADAC, HIM/VHIM) × 100
(§4) where the V HIM value is the observed vicagrel hydrolase activities in HIM.

[8] = Hydrolase activity in dog intestine microsomes; format: in vitro ADME
From the text: as §1

CES2 [9] = assay: Contribution of CES2 to vicagrel hydrolase activity in HIM (RAF method); format: in vitro ADME, human
From the text: as §2
(2) VCES2, HIM = Vrec−CES2 × RAFCES2, HIM
as §3
(4) CES2 in HIM(%) = (VCES2, HIM/VHIM) × 100
as §4

CES1 = target: T3, CES1 (Homo sapiens, UniProt P23141); assay: Hydrolase activity by recombinant human CES1; format: in vitro ADME
T3 construct: purchased Cypex Ltd. (Scotland, United Kingdom)
T3 sequence (P23141 18-567): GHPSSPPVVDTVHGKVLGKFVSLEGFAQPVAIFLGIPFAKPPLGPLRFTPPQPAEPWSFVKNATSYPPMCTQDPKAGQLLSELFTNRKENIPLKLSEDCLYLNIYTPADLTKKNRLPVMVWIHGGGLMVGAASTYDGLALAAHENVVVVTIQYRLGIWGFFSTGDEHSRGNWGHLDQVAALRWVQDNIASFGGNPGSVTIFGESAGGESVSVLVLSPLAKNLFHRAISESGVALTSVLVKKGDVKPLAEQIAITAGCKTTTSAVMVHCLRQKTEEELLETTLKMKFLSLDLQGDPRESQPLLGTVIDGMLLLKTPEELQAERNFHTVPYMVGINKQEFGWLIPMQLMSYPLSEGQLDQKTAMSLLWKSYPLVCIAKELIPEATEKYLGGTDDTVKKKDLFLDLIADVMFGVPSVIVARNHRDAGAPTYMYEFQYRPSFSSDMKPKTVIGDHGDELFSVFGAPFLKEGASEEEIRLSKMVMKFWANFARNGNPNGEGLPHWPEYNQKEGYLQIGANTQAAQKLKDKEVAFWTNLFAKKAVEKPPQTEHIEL
From the text: as §1

[10] = Hydrolase activity (kinetics and marker substrates) in human intestine microsomes
From the text: as §1

COC(=O)[C@H](c1ccccc1Cl)N1CCc2sc(OC(C)=O)cc2C1 [vicagrel, Vicagrel]
Antiplatelet effects versus clopidogrel [1]: Comparable antiplatelet effects | Parent drug in human plasma [2]: undetectable | microsomal CLint (AADAC [3]; human, recombinant human AADAC, pH 7.4): 39000 ± 3100 µL/min/mg | Hydrolase activity (vicagrel), Vrec-AADAC (AADAC [3]; recombinant AADAC): 21.8 nmol/min/mg | Vmax of vicagrel hydrolysis (AADAC [3]; recombinant AADAC 0.015 mg/mL, 2 min): 381.7 ± 24.7 nmol/min/mg protein | Hydrolase activity (vicagrel) ([4]; HLM): 96.5 nmol/min/mg | Vmax of vicagrel hydrolysis ([4]; HLM 0.01 mg/mL, 1 min): 917.6 ± 23.5 nmol/min/mg protein | Km at 1 min ([4]; human, human liver microsomes, pH 7.4, HLM 0.01 mg/mL, 1 min, formation of 2-oxo-clopidogrel, read-out: Km of vicagrel hydrolysis): 7.18 ± 0.66 µM | Production of H4 from vicagrel relative to clopidogrel ([5]; oral, same dose): four to six times higher | Production of 2-oxo-clopidogrel from vicagrel relative to clopidogrel [5]: about six times | microsomal CLint (CES2 [6]; human, recombinant human CES2, pH 7.4, recombinant CES2, calculated as Vmax/Km, read-out: CLint of vicagrel hydrolysis): 46100 ± 3100 µL/min/mg | Hydrolase activity (vicagrel), Vrec-CES2 (CES2 [6]; recombinant CES2): 26.1 nmol/min/mg | Vmax of vicagrel hydrolysis (CES2 [6]; recombinant CES2 0.01 mg/mL, 1 min): 331.2 ± 14.9 nmol/min/mg protein | Contribution of AADAC to vicagrel hydrolysis (AADAC [7]): approximately 53% | Contribution of AADAC to vicagrel hydrolysis (AADAC [7]; listed as Vicagrel): 53.1% | Vmax of vicagrel hydrolysis ([8]; DIM 0.01 mg/mL, 1 min): 171.4 ± 3.9 nmol/min/mg protein | Km at 1 min ([8]; dog, dog intestine microsomes, pH 7.4, DIM 0.01 mg/mL, 1 min, read-out: Km of vicagrel hydrolysis): 8.37 ± 0.69 µM | microsomal CLint ([8]; dog, dog intestine microsomes, pH 7.4, DIM, calculated as Vmax/Km, read-out: CLint of vicagrel hydrolysis): 20500 ± 1300 µL/min/mg | Contribution of CES2 to vicagrel hydrolysis (CES2 [9]; HIM, RAF method, procaine as probe): 44.2% | Sum of the contributions of CES2 and AADAC to vicagrel hydrolysis (CES2 [9]; HIM, RAF method, CES2 plus AADAC): 97.3% | Calculated vicagrel hydrolase activity of CES2 in HIM (VCES2, HIM) (CES2 [9]; Vrec-CES2 × RAFCES2, HIM): 21.2 nmol/min/mg protein | microsomal CLint (CES1; human, recombinant human CES1, pH 7.4, recombinant CES1, calculated as Vmax/Km, read-out: CLint of vicagrel hydrolysis): 29000 ± 2300 µL/min/mg | Hydrolase activity (vicagrel) (CES1; recombinant CES1): 17.3 nmol/min/mg | Vmax of vicagrel hydrolysis (CES1; recombinant CES1 0.01 mg/mL, 2 min): 264.0 ± 16.6 nmol/min/mg protein | Vmax of vicagrel hydrolysis ([10]; HIM 0.01 mg/mL, 1 min): 347.2 ± 6.4 nmol/min/mg protein | Hydrolase activity (vicagrel), VHIM ([10]; human, 1 min, pH 7.4): 48.0 nmol/min/mg | microsomal CLint ([10]; human, microsomes, pH 7.4): 53100 ± 1040 µL/min/mg | Km at 1 min ([10]; human, pH 7.4): 6.54 ± 0.45 µM
